Experimental findings from US11512090B2, “Muscarinic acetylcholine M1 receptor antagonists” (PIPELINE THERAPEUTICS, INC., priority 2018, dated 2022) are described below.

Like-named read-outs stand apart in the source and are kept apart here. Where only a bound is given, the exact number is not on record here.

What all share (format): cell-based
For one test, the target named is T1, human M1 receptor (Homo sapiens, UniProt P11229).
T1 sequence (P11229 1-460): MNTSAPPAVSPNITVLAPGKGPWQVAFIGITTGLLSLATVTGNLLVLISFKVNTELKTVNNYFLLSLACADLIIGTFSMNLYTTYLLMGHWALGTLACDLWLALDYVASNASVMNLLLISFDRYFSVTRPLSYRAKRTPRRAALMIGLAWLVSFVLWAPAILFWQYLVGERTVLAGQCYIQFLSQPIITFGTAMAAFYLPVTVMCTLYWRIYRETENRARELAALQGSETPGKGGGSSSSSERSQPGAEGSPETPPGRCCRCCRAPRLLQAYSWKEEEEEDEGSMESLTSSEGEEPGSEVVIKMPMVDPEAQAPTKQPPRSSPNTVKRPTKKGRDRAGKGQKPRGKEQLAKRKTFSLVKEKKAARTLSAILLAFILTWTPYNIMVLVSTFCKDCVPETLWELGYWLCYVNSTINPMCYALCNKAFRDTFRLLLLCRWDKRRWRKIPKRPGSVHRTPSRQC
The test can be described thus: In vitro functional assay of muscarinic acetylcholine receptor activity (aequorin calcium flux, antagonist mode vs EC80 acetylcholine), M1. The procedure, abridged: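 Antagonism at M1 was measured as a concentration-dependent reduction of the EC80 acetylcholine-evoked aequorin luminescence, from which IC50 was derived. Human M1 CHO-K1 aequorin cells were first loaded with 5 uM coelenterazine h for 4 h and exposed to compound for 30 min at room temperature.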
(In general: Calcium assays in cells follow changes in intracellular calcium, usually with a dye or a luminescent sensor.)

The target of another test is T2, M2 (Homo sapiens, UniProt P08172).
T2 sequence (P08172 1-466): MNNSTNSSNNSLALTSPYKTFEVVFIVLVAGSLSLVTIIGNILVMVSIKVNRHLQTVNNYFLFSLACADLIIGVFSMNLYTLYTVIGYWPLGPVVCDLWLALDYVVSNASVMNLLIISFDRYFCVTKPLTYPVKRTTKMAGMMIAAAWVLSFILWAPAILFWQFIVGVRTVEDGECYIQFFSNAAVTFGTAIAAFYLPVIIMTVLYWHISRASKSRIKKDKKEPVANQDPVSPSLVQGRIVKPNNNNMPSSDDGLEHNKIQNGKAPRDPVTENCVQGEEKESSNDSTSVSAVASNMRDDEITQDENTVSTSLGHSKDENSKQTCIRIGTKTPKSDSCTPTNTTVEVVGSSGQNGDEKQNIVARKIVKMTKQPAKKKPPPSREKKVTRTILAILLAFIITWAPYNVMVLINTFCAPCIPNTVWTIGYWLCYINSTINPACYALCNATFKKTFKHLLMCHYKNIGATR
Nature of the test: In vitro functional assay of muscarinic acetylcholine receptor activity, M2.

Another test addresses M3 (Homo sapiens, UniProt P20309). Nature of the test: In vitro functional assay of muscarinic acetylcholine receptor activity, M3. Conditions: antagonist IC50 at M3; read-out: M3 IC50.
The mark [1] stands for this setting: CHO-K1 cells stably expressing human M1 receptor with Aequorin, decrease in EC80 acetylcholine response, read-out: M1 IC50.
[2] abbreviates: antagonist IC50 at M2, read-out: M2 IC50.

Sequence of M3 (P20309 whole entry): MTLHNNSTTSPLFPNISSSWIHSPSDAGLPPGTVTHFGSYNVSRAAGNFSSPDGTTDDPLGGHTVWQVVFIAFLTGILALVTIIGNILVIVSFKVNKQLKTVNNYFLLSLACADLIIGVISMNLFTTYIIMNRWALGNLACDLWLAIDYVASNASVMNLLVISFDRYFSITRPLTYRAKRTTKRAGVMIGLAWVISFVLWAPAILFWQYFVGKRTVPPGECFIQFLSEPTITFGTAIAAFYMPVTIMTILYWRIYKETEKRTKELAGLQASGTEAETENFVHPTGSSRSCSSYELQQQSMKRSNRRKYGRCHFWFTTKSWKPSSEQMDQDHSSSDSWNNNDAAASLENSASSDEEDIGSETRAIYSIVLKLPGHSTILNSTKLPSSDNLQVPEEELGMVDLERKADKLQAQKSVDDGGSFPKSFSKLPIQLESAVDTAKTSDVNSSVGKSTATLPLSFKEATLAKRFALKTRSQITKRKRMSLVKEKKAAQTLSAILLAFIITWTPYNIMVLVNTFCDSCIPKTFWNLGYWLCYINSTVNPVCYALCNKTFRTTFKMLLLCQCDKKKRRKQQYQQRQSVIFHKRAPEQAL

Take `Cc1cc(F)cnc1N1CCN(C(=O)COCc2cccc3ncccc23)[C@@H](C)C1` [Example 87, (S)-1-(4-(5-fluoro-3-methylpyridin-2-yl)-2-methylpiperazin-1-yl)-2-(quinolin-5-ylmethoxy)ethan-1-one]: the IC50 at human M1 receptor (setting [1]) was in the range of 1000 to 10000 nM; on M2 (setting [2]), 1000 to 10000 nM; at M3, 1 to 10 µM.
Turning to `Cc1cc(F)cnc1N1CCN(C(=O)COCc2cccc3ncsc23)[C@@H](C)C1` [Example 88, (S)-2-(benzo[d]thiazol-7-ylmethoxy)-1-(4-(5-fluoro-3-methylpyridin-2-yl)-2-methylpiperazin-1-yl)ethan-1-one], the 50% inhibitory concentration (IC50) on human M1 receptor (setting [1]) is 1000 to 10000 nM; at M2 (setting [2]), 1000 to 10000 nM; on M3, over 10 µM.
Consider `Cc1cc(F)cnc1N1CCN(C(=O)CNCc2cccc3ncsc23)[C@@H](C)C1` [Example 89, (S)-2-((benzo[d]thiazol-7-ylmethyl)amino)-1-(4-(5-fluoro-3-methylpyridin-2-yl)-2-methylpiperazin-1-yl)ethan-1-one], for which the IC50 on human M1 receptor (setting [1]) is 1000 to 10000 nM; on M2 (setting [2]), over 10000 nM; on M3, over 10 µM.
For `C[C@H]1CN(c2ncc(F)cc2C#N)CCN1C(=O)CCCc1cccc2ncccc12` [Example 90, (S)-5-fluoro-2-(3-methyl-4-(4-(quinolin-5-yl)butanoyl)piperazin-1-yl)nicotinonitrile] the same measures were over 10000 nM, 1000 to 10000 nM and over 10 µM.
For `C[C@H]1CN(c2ncc(F)cc2F)CCN1C(=O)CCCc1cccc2ncccc12` [Example 91, (S)-1-(4-(3,5-difluoropyridin-2-yl)-2-methylpiperazin-1-yl)-4-(quinolin-5-yl)butan-1-one] the same measures were 100 to 1000 nM, 1000 to 10000 nM and 1 to 10 µM.
For `COc1cnccc1N1CCN(C(=O)CCCc2cccc3ncccc23)[C@@H](C)C1` [Example 92, (S)-1-(4-(3-methoxypyridin-4-yl)-2-methylpiperazin-1-yl)-4-(quinolin-5-yl)butan-1-one] the same measures were under 100 nM, 100 to 1000 nM and 1 to 10 µM.
With `Cc1ncccc1N1CCN(C(=O)CCCc2cccc3ncccc23)[C@@H](C)C1` [Example 93, (S)-1-(2-methyl-4-(2-methylpyridin-3-yl)piperazin-1-yl)-4-(quinolin-5-yl)butan-1-one], the IC50 on human M1 receptor (setting [1]) is over 10000 nM; at M2 (setting [2]), over 10000 nM; at M3 it was over 10 µM.
`Cc1cc(F)cnc1N1CCN(C(=O)CCCc2cccc3ncc(CO)cc23)[C@@H](C)C1` [Example 94, (S)-1-(4-(5-fluoro-3-methylpyridin-2-yl)-2-methylpiperazin-1-yl)-4-(3-(hydroxymethyl)quinolin-5-yl)butan-1-one]: the results for the half-inhibitory concentration (IC50) at human M1 receptor (setting [1]), on M2 (setting [2]) and on M3 were 100 to 1000 nM, 100 to 1000 nM and 1 to 10 µM, respectively.
Take `O=C(CCS(=O)(=O)c1cccc2ncsc12)N1C[C@H]2CC[C@@H](C1)N2c1ccncc1F` [Example 95, 3-(benzo[d]thiazol-7-ylsulfonyl)-1-((1R,5S)-8-(3-fluoropyridin-4-yl)-3,8-diazabicyclo[3.2.1]octan-3-yl)propan-1-one]: the IC50 at human M1 receptor is under 100 nM; on M2 (setting [2]), under 100 nM; on M3, 0.1 to 1 µM.
`Cc1cc(F)cnc1N1CCN(C(=O)CCS(=O)(=O)c2cccc3ncccc23)[C@@H](C)C1` [Example 96, (S)-1-(4-(5-fluoro-3-methylpyridin-2-yl)-2-methylpiperazin-1-yl)-3-(quinolin-5-ylsulfonyl)propan-1-one]: the IC50 is 100 to 1000 nM at human M1 receptor (setting [1]), 1000 to 10000 nM on M2 (setting [2]) and over 10 µM at M3.
With `Cc1cc(F)cnc1N1CCN(C(=O)CCCS(=O)(=O)c2cccc3ncsc23)[C@@H](C)C1` [Example 97, (S)-4-(benzo[d]thiazol-7-ylsulfonyl)-1-(4-(5-fluoro-3-methylpyridin-2-yl)-2-methylpiperazin-1-yl)butan-1-one], the concentration for half-maximal inhibition (IC50) at human M1 receptor (setting [1]) lay in the range of 1000 to 10000 nM; at M2 (setting [2]), 1000 to 10000 nM; on M3, 1 to 10 µM.
With `Cc1nc2cccc(S(=O)(=O)CCCC(=O)N3CCN(c4ncc(F)cc4C)C[C@@H]3C)c2o1` [Example 98, (S)-1-(4-(5-fluoro-3-methylpyridin-2-yl)-2-methylpiperazin-1-yl)-4-((2-methylbenzo[d]oxazol-7-yl)sulfonyl)butan-1-one], the results for the half-maximal inhibitory concentration (IC50) on human M1 receptor (setting [1]), at M2 (setting [2]) and at M3 were 1000 to 10000 nM, 1000 to 10000 nM and over 10 µM, respectively.
In the case of `O=C(CCS(=O)(=O)c1cccc2ncsc12)N1CCN(c2ccnc(C(F)(F)F)c2)CC1` [Example 99, 3-(benzo[d]thiazol-7-ylsulfonyl)-1-(4-(2-(trifluoromethyl)pyridin-4-yl)piperazin-1-yl)propan-1-one], the IC50 at human M1 receptor (setting [1]) was 1000 to 10000 nM; on M2 (setting [2]), 1000 to 10000 nM; at M3 it was over 10 µM.
With `C[C@H]1CN(c2cnccc2Cl)CCN1C(=O)CCS(=O)(=O)c1cccc2ncsc12` [Example 101, (S)-3-(benzo[d]thiazol-7-ylsulfonyl)-1-(4-(4-chloropyridin-3-yl)-2-methylpiperazin-1-yl)propan-1-one], the figures for the IC50 on human M1 receptor (setting [1]), at M2 (setting [2]) and on M3 were 100 to 1000 nM, 1000 to 10000 nM and over 10 µM, respectively.
For `O=C(CCS(=O)(=O)c1cccc2ncsc12)N1CCN(c2ccc(C(F)(F)F)cn2)CC1` [Example 102, 3-(benzo[d]thiazol-7-ylsulfonyl)-1-(4-(5-(trifluoromethyl)pyridin-2-yl)piperazin-1-yl)propan-1-one] the same measures were under 100 nM, 1000 to 10000 nM and 1 to 10 µM.
On to `Cc1nc2cccc(S(=O)(=O)CCC(=O)N3C[C@H]4CC[C@@H](C3)N4c3ccncc3F)c2o1` [Example 103, 1-((1R,5S)-8-(3-fluoropyridin-4-yl)-3,8-diazabicyclo[3.2.1]octan-3-yl)-3-((2-methylbenzo[d]oxazol-7-yl)sulfonyl)propan-1-one], for which the concentration for half-maximal inhibition (IC50) on human M1 receptor is under 100 nM; at M2, 100 to 1000 nM; at M3, 1 to 10 µM.
`O=C(CCS(=O)(=O)c1cccc2nccn12)N1C[C@H]2CC[C@@H](C1)N2c1ccncc1F` [Example 104, 1-((1R,5S)-8-(3-fluoropyridin-4-yl)-3,8-diazabicyclo[3.2.1]octan-3-yl)-3-(imidazo[1,2-a]pyridin-5-ylsulfonyl)propan-1-one]: the IC50 is under 100 nM on human M1 receptor, 1000 to 10000 nM at M2 (setting [2]) and 1 to 10 µM at M3.
Regarding `O=C(CCS(=O)(=O)c1cccc2ncsc12)N1CCN(c2c(Cl)cncc2Cl)CC1` [Example 105, 3-(benzo[d]thiazol-7-ylsulfonyl)-1-(4-(3,5-dichloropyridin-4-yl)piperazin-1-yl)propan-1-one], the IC50 at human M1 receptor (setting [1]) lay within 1000 to 10000 nM; on M2 (setting [2]) it was 1000 to 10000 nM; at M3 it was 1 to 10 µM.
As for `O=C(CCS(=O)(=O)c1cccc2nccn12)N1CCN(c2ccc(C(F)(F)F)cn2)CC1` [Example 106, 3-(imidazo[1,2-a]pyridin-5-ylsulfonyl)-1-(4-(5-(trifluoromethyl)pyridin-2-yl)piperazin-1-yl)propan-1-one], the half-maximal inhibitory concentration (IC50) at human M1 receptor (setting [1]) was 1000 to 10000 nM; at M2 (setting [2]), 1000 to 10000 nM; on M3 it was over 10 µM.
Regarding `Cc1cncc(Cl)c1N1CCN(C(=O)CCS(=O)(=O)c2cccc3ncsc23)CC1` [Example 107, 3-(benzo[d]thiazol-7-ylsulfonyl)-1-(4-(3-chloro-5-methylpyridin-4-yl)piperazin-1-yl)propan-1-one], the values for the half-inhibitory concentration (IC50) at human M1 receptor (setting [1]), at M2 (setting [2]) and on M3 were 1000 to 10000 nM, over 10000 nM and 1 to 10 µM, respectively.
For the compound `Cc1cncc(Cl)c1N1CCN(C(=O)CCS(=O)(=O)c2cccc3ncsc23)[C@@H](C)C1` [Example 108, (S)-3-(benzo[d]thiazol-7-ylsulfonyl)-1-(4-(3-chloro-5-methylpyridin-4-yl)-2-methylpiperazin-1-yl)propan-1-one], the figures for the half-inhibitory concentration (IC50) on human M1 receptor (setting [1]), on M2 (setting [2]) and on M3 were 100 to 1000 nM, over 10000 nM and 1 to 10 µM, respectively.
On to `Cc1nc2cccc(S(=O)(=O)CCC(=O)N3CCN(c4ccc(C(F)(F)F)cn4)CC3)c2o1` [Example 109, 3-((2-methylbenzo[d]oxazol-7-yl)sulfonyl)-1-(4-(5-(trifluoromethyl)pyridin-2-yl)piperazin-1-yl)propan-1-one], for which the results for the half-inhibitory concentration (IC50) on human M1 receptor (setting [1]), at M2 (setting [2]) and on M3 were 1000 to 10000 nM, over 10000 nM and over 10 µM, respectively.

The term IC50 denotes the midpoint of a concentration-inhibition curve.
